From patent US11066711B2, “Biomarkers for predicting Clostridium difficile infection treatment outcome” (Mayo Foundation for Medical Education and Research, priority 2015, dated 2021)

System: Clostridium difficile infection
Assay: Primary CDI treatment outcome in patients with a first CDI episode (clinical cohort)
Assay type: in vivo, human
Conditions: 88 patients with first CDI episode; metronidazole versus vancomycin (Table 1)
Excerpt: Patients with a first Clostridium difficile infection (CDI) episode were recruited. Consecutive patient stool samples that led to CDI diagnosis were collected.
Clinical data including demographics, hospitalization, concomitant medications, severity, laboratory parameters, prior and concomitant antibiotic use, initial CDI treatment, treatment response and recurrent CDI were obtained by a review of the electronic medical record.
Treatment failure was defined as non-response to treatment after 5 days of metronidazole treatment or 4 days of vancomycin therapy (Khanna et al., 2012 Am J Gastroenterol 107:89-95; Cohen et al., 2010 Infect Control Hosp Epidemiol 31:431-55; and Surawicz et al., 2013 Am J Gastroenterol 108:478-98). Recurrent CDI was defined as recurrence of diarrhea after complete resolution of symptoms at any time during the treatment or within 56 days of onset with a positive CDI test (Cohen et al., 2010 Infect Control Hosp Epidemiol 31:431-55).
Stool samples were collected from 88 patients (median age 52.7 years, interquartile range 36.9-65.1; 60.2% female) and clinical outcomes were recorded prospectively. The rate of primary non-response following recommended treatment was 12.5%, and was similar between metronidazole and vancomycin (Table 1).

SMILES	rate of primary non-response, comparison between drugs
CN[C@H](CC(C)C)C(=O)N[C@H]1C(=O)N[C@@H](CC(N)=O)C(=O)N[C@H]2C(=O)N[C@H]3C(=O)N[C@H](C(=O)N[C@H](C(=O)O)c4cc(O)cc(O)c4-c4cc3ccc4O)[C@H](O)c3ccc(c(Cl)c3)Oc3cc2cc(c3O[C@@H]2O[C@H](CO)[C@@H](O)[C@H](O)[C@H]2O[C@H]2C[C@](C)(N)[C@H](O)[C@H](C)O2)Oc2ccc(cc2Cl)[C@H]1O [vancomycin]	similar
Cc1ncc([N+](=O)[O-])n1CCO [metronidazole]	similar
